Test results from patent US20080014248A1, “Photosensitizer containing indole-3-alkylcarboxylic acid, and kit for photodynamic therapy containing the same” (priority 2006, published 2008).

What was measured:
[1] = tested on: G361 human melanoma cell line, mouse melanoma cell line B16, liver cancer cell (SK-HEP-1); test: Toxicity experiment (MTT assay), IAA with UVB irradiation, cancer cells; format: cell-based; settings: 1 to 1000 mM, 20 hours, FIG. 3
Procedure: (§1) (Cell Culture) After cultivating G361 human melanoma cell line (ATCC, Rockville, Md.) in a 5% CO2, 37 °C, 10% fetal bovine serum (FBS), 50 μg/mL streptomyocin, and 50 μg/mL penicillin containing DMEM culture, mouse melanoma cell line B16 (Korea Cell Bank, Seoul, Korea) liver cancer cell (SK-HEP-1, Korea Cell Bank, Seoul, Korea) was cultivated in the DMEM culture under the same conditions. Fibroblasts have been used for the separation of the foreskin during phimosiectomy. Following the skin biopsy method of Rheinward and Green (Rheinwald J G, Green H. Serial cultivation of strains of human epidermal keratinocytes; the formation of keratinizing colonies from single cells. Cell 1975;6: 331-43.), the […] were cultivated in a 10% fetal bovine serum (FBS), 50 μg/mL of streptomyocin, and 50 μg/mL of penicillin containing DMEM culture.
(§2) The cells cultivated in the medium were divided into 24 wells (4×10^4/well), and was then cultivated in a medium without FBS for 24 hours. Cytotoxic effect was measured using MTT (3,4-dimethylthiazol-2-yl)2,5-diphenyltetrazolium bromide) assay. An ICA group treated with UVB (100 mJ/cm^2) and a group with ICA alone were separated, each with a final IAA concentration between 1 and 1000 mM in the culture. […] After adding and dissolving 1 ml of dimethylsufoxide solution in the well, the absorption was measured using ELISA reader at 540 nm. […]

normal human fibroblasts [2] = test: Toxicity experiment of various cell types (MTT assay), IAA/HRP, fibroblasts; format: cell-based; settings: 20 hours, FIG. 2a-2c
Procedure: (§3) Stomach cancer cell line (SNU1, SNU16, SNU601, SNU719, Korean Cell Bank, Seoul, Korea), and lung cancer cell line (NCI-H157, NCI-H1264, Korea Cell Bank, Seoul, Korea) were cultivated in a 5% CO2, 37 °C, 10% FBS, and 50 μg/mL penicillin containing RPMI 1640 culture (WelGene, Daegu, Korea), and liver cancer cell line (SK-HEP-1, Korean Cell Bank, Seoul, Korea) was cultivated in DMEM culture (WelGene, Daegu, Korea) under the same conditions. Fibroblasts have been used for the separation of the foreskin during phimosiectomy. […]
(§4) The cells cultivated in the medium were divided into 24 wells (4×10^4/well), and were then cultivated in a medium without FBS for 24 hours. Cytotoxic effect was measured using MTT (3,4-dimethylthiazol-2-yl)2,5-diphenyltetrazolium bromide) assay (Kim, D. S., Jeon, S. E., Park, K. C. […]
(§5) An HRP (1.2 mg/ml) treated group and a group untreated with HRP was separated, each with a final IAA concentration between 1 and 1000 mM in the culture. […] After adding and dissolving 1 ml of dimethylsufoxide solution in the well, the absorption was measured using ELISA reader at 540 nm. […]

[3] = Photo-activation of IAA by different wavelength of light, free radical formation by DCF (dichlorofluorescein) assay; format: physicochemical; settings: 1 mM IAA, HL-2000-HP irradiator, FIG. 4
Procedure: In order to study the effects of different wavelength of light, IAA was irradiated with HL-2000-HP (Ocean Optics, Dunedin, Fla., USA). Free radical formation was measured by DCF (dichlorofluorescein) assay. In order to induce activity of DCFH-DA, DCFH-DA was dissolved to a 1 mM concentration in 100% ethanol. 350 ul of the solution was then added to 1.75 ml of 0.01 N NaOH and allowed reaction for 5, 10, and 20 minutes. The activated DCFH-DA solution was then prepared by mixing 17.9 ml of 25 mM natrium-phosophoric acid buffer solution (pH 7.2). 1 mM of IAA was then administered to the activated DCFH-DA, and using HL-2000HP light irradiator, various wavelength filters (380, 400, 480, 520, 590, 640 nm) (Thorlabs, Inc., Long Beach, Calif., USA) were used to observe any photoactivation of IAA using each wavelength. Absorption was measured using ELISA reader at 490 nm.

[4] = tested on: Stomach cancer cell line (SNU1, SNU16, SNU601, SNU719), lung cancer cell line (NCI-H157, NCI-H1264), liver cancer cell line (SK-HEP-1); test: Toxicity experiment of various cell types (MTT assay), IAA/HRP, cancer cells; format: cell-based; settings: 20 hours, FIG. 2a-2c
Procedure: as §3, §4, §5

NCI-H1264 cell = test: Prevention of cancer by combining IAA and IPL (treatment before appearance of tumor mass, biopsy); format: in vivo, nude mouse; settings: IAA and IPL treatment one, three and five days after NCI-H1264 cell injection, biopsy ten days after injection, FIG. 7
Procedure: It was observed that the combination of IAA and IPL could induce cancer cell necrosis. However, prevention of histologic or distant metastasis is more important in the treatment of cancer. In order to study the prevention effect, IAA and IPL treatment was performed after cancer cell injection but before the appearance of tumor mass. One, three, and five days after NCI-[…] cell injection, IAA and IPL treatment was performed. Ten days after cancer cell injection, biopsy was done. […] Thus, it can be said that IAA and IPL treatment was effective in the prevention of distant metastasis.

[5] = tested on: Human lung cancer cells (NCI-H1264 cell) tumor; test: Treatment of cancer by combination of IAA and IPL in nude mouse (Hematoxylin & Eosin stain, TUNEL assay); format: in vivo; settings: IAA 50 mg/kg intravenous, 4 and 7 days after cancer cell injection, IPL 20 J/cm2 thirty minutes later, biopsy at twelve days, FIG. 6
Excerpt: Intense pulse light (IPL) flash lamp by Eclipse was used for visible light irradiation. 20 Irradiation of 20 J/cm^2 intensity was used with a IPL apparatus able to irradiate between 515 nm to 1200 nm. After applying transmission gel (PROGEL DA-YO Medical, Seoul, Korea) to areas of tumor formation each region was irradiated twice using IPL. Human lung cancer cells (NCI-[…] cell, 1×10^6) were subcutaneously injected into nude mouse (Charles River Lab. Wilmington, Mass./male, 6 weeks old, weight 22-25 g). […] 4 and 7 days after cancer cell injection, these mice were injected with IAA (50 mg/kg). Thirty minutes after intravenous injection of IAA, mice were irradiated with IPL (20 J/cm2). Twelve days after cancer cell injection, biopsy was done and tunnel stain was also performed. […] Experimental IAA (10 mg/ml in 50 mM NaHCO/2% v/v ethanol/water, pH 7) was prepared. A control group of mice with tumor mass formation and an experimental group of mice injected with IAA (pH 7, 50 mg/kg) were separated. The injected group was again separated into two groups, one group treated with IAA after 4 days of cancer cell injection and the other after 7 days. Thirty minutes after intravenous injection of IAA, mice were irradiated with IPL (20 J/cm2). A TUNEL (Chemicon, Temecula, Calif.) assay kit was used for the present experiment. […]

normal human fibroblasts [6] = test: Toxicity experiment (MTT assay), IAA with UVB irradiation, fibroblasts; format: cell-based; settings: 1 to 1000 mM, 20 hours, FIG. 3
Procedure: as §1, §2

[7] = tested on: G361 human melanoma cell line; test: G361 cell toxicity experiment (MTT assay), IAA with or without HRP; format: cell-based; settings: 20 hours, G361 cells, FIG. 1
Procedure: G361 human melanoma cell line (ATCC, Rockville, Md.) was cultivated in a 5% CO2, 37 °C, 10% fetal bovine serum (FBS), and 50 μg/mL penicillin containing RPMI 1640 culture (WelGene, Daegu, Korea).
The cells cultivated in the medium were divided into 24 wells (4×10^4/well), and was then cultivated in a medium without FBS for 24 hours. Cytotoxic effect was measured using MTT (3,4-dimethylthiazol-2-yl)2,5-diphenyltetrazolium bromide) assay (Kim, D. S., Jeon, S. E., Park, K. C. Cell Signal, 16, 81-8, 2004).
An HRP (1.2 mg/ml, Sigma, St. Louis, Mo.) treated group (indicated by the ‘∘’ in FIG. 1) and a group untreated with HRP (indicated by the ‘▪’ in FIG. 1) were separated, each with a final IAA density between 1 and 500 mM in the culture. After cultivating for 20 hours, 0.5 mg/Ml of MTT was added to the culture and cultivated for 4 more hours. After adding and dissolving 1 ml of dimethylsufoxide solution in the well, the absorption was measured using ELISA reader (TECAN, Salzburg, Austria) at 540 nm. The viability rate for the control group was set at 100%.
(Calculations) Cell viability(%)=(experimental group/control group absorption)×100

activation of IAA by light (free radical formation, DCF assay) ([3]; 480 nm (blue) filter): particularly effective
activation of IAA by light (free radical formation, DCF assay) ([3]; 520 (green) filter): particularly effective
SMILES: O=C(O)Cc1c[nH]c2ccccc12 [IAA, Indole-3-acetic acid]
toxicity (cell viability, MTT) ([1]; IAA alone): not toxic to either normal cells or cancer cells
toxicity (cell viability, MTT) ([1]; IAA treated with UVB (100 mJ/cm^2)): toxic to most of the cancer cells
toxicity (cell viability, MTT) (normal human fibroblasts [2]; IAA administered with HRP (1.2 mg/ml), normal human fibroblasts): not toxic to normal human fibroblasts
toxicity (cell viability, MTT) (normal human fibroblasts [2]; IAA alone, 1 to 1000 mM, normal cells (fibroblasts)): not toxic to either normal cells or cancer cells
toxicity (cell viability, MTT) ([4]; IAA administered with HRP (1.2 mg/ml)): toxic to most of the cancer cells
toxicity (cell viability, MTT) ([4]; IAA alone, 1 to 1000 mM): not toxic to either normal cells or cancer cells
tumor cell growth (biopsy) (NCI-H1264 cell): not observed in treated tissues
tumor necrosis (Hematoxylin & Eosin stain and TUNEL assay) [5]: can induce tumor necrosis
toxicity (cell viability, MTT) (normal human fibroblasts [6]; IAA alone, normal cells (fibroblasts)): not toxic to either normal cells or cancer cells
toxicity (cell viability, MTT) (normal human fibroblasts [6]; IAA treated with UVB (100 mJ/cm^2), normal human fibroblasts): not toxic to normal human fibroblasts
cytotoxic effects (cell viability, MTT) ([7]; IAA alone (no HRP), IAA 1 to 500 mM): no signs of cytotoxic effects
cytotoxic effects (cell viability, MTT) ([7]; IAA and HRP (1.2 mg/ml), IAA density of at least 100 mM): definite cytotoxic effects
